Common to all, as to assay type: biochemical
The target of assay [1] is T1, DNA methyltransferase 1 (RFTS(-) DNMT1) (Homo sapiens, UniProt P26358).
T1 construct: RFTS(-) DNMT1 (amino acids 621–1616)
Nature of the assay: endonuclease-coupled DNA methylation assay (IC50); supported by DSF (+[…] °C), FP DNA competition and detergent test. Background: In DSF a fluorescence change marks the thermal transition of the protein.

Assay [2] has as its target T1, DNA methyltransferase 1 (RFTS(-) DNMT1). As to the kind of experiment: endonuclease-coupled DNA methylation kinetics (Ki); IC50 […]; supported by DSF (+[…] °C), FP DNA competition and detergent test.
The target of assay [3] is T2, DNMT3a (Homo sapiens, UniProt Q9Y6K1).
T2 construct: C-terminal catalytic domain of DNMT3a (amino acids 611–912)
As to the kind of experiment: endonuclease-coupled DNA methylation assay, single concentration […] ([…] activity remaining). Particulars: read-out: DNMT3a catalytic domain.

T1 sequence (P26358 621-1616): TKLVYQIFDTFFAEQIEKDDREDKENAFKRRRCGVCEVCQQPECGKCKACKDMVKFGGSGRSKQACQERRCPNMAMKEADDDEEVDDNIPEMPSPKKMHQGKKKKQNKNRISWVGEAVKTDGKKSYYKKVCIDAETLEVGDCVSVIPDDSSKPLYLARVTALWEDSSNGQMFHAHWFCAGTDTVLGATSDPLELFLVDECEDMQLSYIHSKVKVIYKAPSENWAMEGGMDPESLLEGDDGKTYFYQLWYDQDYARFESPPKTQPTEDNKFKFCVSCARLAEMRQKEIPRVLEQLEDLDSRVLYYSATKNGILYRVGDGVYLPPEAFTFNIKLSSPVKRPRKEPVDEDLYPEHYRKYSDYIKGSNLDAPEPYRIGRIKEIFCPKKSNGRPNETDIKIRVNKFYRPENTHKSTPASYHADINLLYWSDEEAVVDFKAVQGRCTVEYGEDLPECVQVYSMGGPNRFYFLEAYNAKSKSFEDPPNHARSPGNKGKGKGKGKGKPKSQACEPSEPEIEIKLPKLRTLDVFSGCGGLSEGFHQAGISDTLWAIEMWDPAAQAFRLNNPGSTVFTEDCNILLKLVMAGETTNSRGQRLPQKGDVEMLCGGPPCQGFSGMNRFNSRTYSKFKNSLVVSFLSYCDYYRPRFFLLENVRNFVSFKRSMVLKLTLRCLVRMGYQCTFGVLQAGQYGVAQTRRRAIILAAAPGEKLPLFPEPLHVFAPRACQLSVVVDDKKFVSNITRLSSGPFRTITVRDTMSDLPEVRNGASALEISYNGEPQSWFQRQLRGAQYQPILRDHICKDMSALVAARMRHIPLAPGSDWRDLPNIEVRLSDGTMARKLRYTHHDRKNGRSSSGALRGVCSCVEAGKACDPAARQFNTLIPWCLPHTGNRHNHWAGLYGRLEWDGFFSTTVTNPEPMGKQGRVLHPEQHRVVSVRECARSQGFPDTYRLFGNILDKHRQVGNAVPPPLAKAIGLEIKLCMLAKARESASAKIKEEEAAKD
T2 sequence (Q9Y6K1 611-912): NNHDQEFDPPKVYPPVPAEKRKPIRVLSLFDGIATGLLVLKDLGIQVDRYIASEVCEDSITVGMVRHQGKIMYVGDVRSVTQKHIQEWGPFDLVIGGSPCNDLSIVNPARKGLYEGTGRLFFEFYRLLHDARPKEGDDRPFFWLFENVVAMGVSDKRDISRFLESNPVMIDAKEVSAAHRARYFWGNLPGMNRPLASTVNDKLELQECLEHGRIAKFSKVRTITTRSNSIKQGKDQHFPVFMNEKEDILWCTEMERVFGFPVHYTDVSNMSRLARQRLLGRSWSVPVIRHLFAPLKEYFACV

Compound `Cc1ccc(NC(=O)c2ccc3c(c2O)C(=O)c2ccccc2C3=O)cc1` [A11] showed an IC50 in assay [1] of 59 ± 10 µM.
`COc1cc(C(=O)Nc2ccc3c(c2)C(=O)c2ccccc2C3=O)cc(OC)c1OC` [A13] returned an inhibitory constant (Ki) in assay [2] of 13 ± 3 µM.
For the compound `CC(=O)NCCc1ccc(O)c(-c2c(O)c(O)c3c(c2O)C(=O)c2c(cc(O)c(C(=O)O)c2C(=O)O)C3=O)c1` [LCA, laccaic acid A], in assay [3], the activity at 100 µM worked out at 32 ± 1%.

For orientation: IC50 means the concentration that gives 50% inhibition. A word on the Ki: it is the dissociation constant of the complex between target and ligand, obtained from inhibition or displacement. Higher therefore signals lower affinity.

For the origin of these results see paper PMC6629088, “Substituted anthraquinones represent a potential scaffold for DNA methyltransferase 1-specific inhibitors” (PLoS ONE, 2019).
